According to the NIST ThermoML archive (doi:10.1021/je0342320):

Assay: xn = mol fraction of the nth substance listed
Conditions: Liquid, Vibrating tube method

CCCCCCCCCC [decane] + COC(=O)OC
mass density [kg/m3]
Conditions	100 kPa	10000 kPa	20000 kPa	30000 kPa	40000 kPa
308.15 K, x2 = 0.0676	–	–	–	748.49	–
308.15 K, x2 = 0.2303	–	–	–	774.52	–
308.15 K, x2 = 0.2934	–	–	–	786.53	–
308.15 K, x2 = 0.4055	–	–	–	810.51	–
308.15 K, x2 = 0.502	–	–	827.62	835.23	–
308.15 K, x2 = 0.5476	–	–	840.77	848.52	–
308.15 K, x2 = 0.5883	–	–	853.46	861.27	–
308.15 K, x2 = 0.665	–	–	880.05	888.01	–
308.15 K, x2 = 0.7101	–	–	898.05	906.21	–
308.15 K, x2 = 0.7993	–	–	937.83	946.02	–
308.15 K, x2 = 0.9062	–	–	998.48	1006.83	–
313.15 K, x2 = 0.0676	722.58	730.76	738.28	745.23	751.65
313.15 K, x2 = 0.2303	747.1	755.75	763.69	770.99	777.72
313.15 K, x2 = 0.2934	758.66	767.5	775.54	782.96	789.79
313.15 K, x2 = 0.4055	781.63	790.74	799.07	806.72	813.78
313.15 K, x2 = 0.502	805.45	814.81	823.33	831.19	838.42
313.15 K, x2 = 0.5476	818.21	827.67	836.31	844.29	851.66
313.15 K, x2 = 0.665	856.63	866.37	875.3	883.49	891.08
313.15 K, x2 = 0.7101	874	883.94	893.08	901.47	909.27
313.15 K, x2 = 0.7993	913.46	923.44	932.63	941.03	948.81
313.15 K, x2 = 0.9062	973.48	983.52	992.81	1001.36	1009.35
318.15 K, x2 = 0.0676	718.68	727.04	734.75	741.84	–
318.15 K, x2 = 0.2303	742.9	751.73	759.87	767.35	–
318.15 K, x2 = 0.2934	754.31	763.4	771.65	779.22	–
318.15 K, x2 = 0.4055	777.08	786.45	794.97	802.8	–
318.15 K, x2 = 0.502	800.57	810.24	819.01	827.05	–
318.15 K, x2 = 0.5476	813.18	822.96	831.86	840	–
318.15 K, x2 = 0.665	851.25	861.33	870.52	878.91	–
318.15 K, x2 = 0.7101	868.41	878.62	888.03	896.64	–
318.15 K, x2 = 0.7993	907.56	917.9	927.38	936.02	–
318.15 K, x2 = 0.9062	967.13	977.56	987.16	995.97	–
